Tests used:
[1] = system: LPS-induced lung neutrophils; test: Inhibition of LPS-induced lung neutrophilia in rats after intratracheal dosing; type: in vivo; details: male CD Sprague-Dawley rats; single intratracheal dose 4 hours before nebulised LPS; BAL 4 hours after LPS
Procedure: The pharmacological activity may be assessed in in vivo models of lung inflammation such as the one described below. The primary objective of this procedure was to determine the anti-inflammatory activity of the compounds of formula (I), when administered directly into the lungs via the trachea.
Test compounds were dissolved, or prepared as fine suspensions, in phosphate buffered saline containing 0.5% (w/v) Tween-80 to provide a range of dose levels. Male CD Sprague-Dawley rats (300-450 g) were randomised to study groups of n=6 and then briefly anaesthetised in an anaesthetic chamber with 5% Isoflurane in 3 l/min O2. One of the test compound formulations or dose vehicle (100 μl) was injected directly into the trachea of each anaesthetised rat using a Hamilton syringe. The animals were then allowed to recover from the anaesthetic. Dependent on the study design, animals received either a single dose of compound or were treated once daily on 4 successive days. Four hours after the dosing (or 4 hours after the final dose in repeat dose studies) the rats were placed into a chamber (300×300×450 mm), connected to an ultrasonic nebuliser and a small animal rodent ventilator set to the maximum tidal volume and rate (5 ml, 160 strokes/min). 10 ml of 1 mg/ml LPS (Sigma-Aldrich, L2630) dissolved in saline, pre-warmed to 37° C., was nebulised into the chamber. After 15 minutes the ventilator and nebuliser were turned off and the animals remained in the chamber to breathe the mist for a further 15 minutes before being returned to the home cage.
Four hours after the end of the LPS treatment the animals were terminally anaesthetised with 1 ml/kg Pentoject IP. The trachea was cannulated and the lungs lavaged with 4×2.5 ml PBS containing 2.6 mM EDTA and the lavage fluid collected. 1 ml bronchioalveolar lavage (BAL) was added to 125 μl of 40% bovine serum albumen (BSA) and the cellular count determined using an Advia 120 haematology system (Siemens). In repeat dose studies, bodyweights and weights of adrenal glands and thymus were also determined as these are known to decrease in response to glucocorticoid agonist exposure and have been used to assess the systemic effects of glucocorticoid agonists. In some repeat dose experiments, a terminal blood sample was collected from each rat, serum and plasma prepared, and concentrations of corticosterone in serum and ACTH in plasma were determined as additional markers of systemic glucocorticoid agonist effect. In some studies a known glucocorticoid agonist, fluticasone propionate, was administered to separate groups of rats as a positive control.
Separate dose response curves were constructed, for inhibition of LPS-induced lung neutrophils, and each marker of glucocorticoid agonist systemic effect. Half maximal effect doses (ED50) values were estimated from the fitted curves. The ED50 values for effect on systemic markers of glucocorticoid agonist activity were also divided by the ED50 for inhibition of lung neutrophilia in order to determine values for therapeutic index (TI).

[2] = system: TNF-α release from LPS stimulated isolated human peripheral mononuclear cells (PBMC); test: Inhibition of TNF-α release from LPS stimulated isolated human PBMC; type: cell-based; details: 1 h preincubation, 18 hours after LPS, ELISA
Procedure: (§1) The anti-inflammatory activity of the compounds against human leukocytes in vitro was also evaluated by determining inhibition of tumour necrosis factor-α (TNF-α) release from lipopolysaccharide (LPS) stimulated human whole blood (WB) and isolated human peripheral mononuclear cells (PBMC).
(§2) Peripheral venous blood from healthy, non-medicated donors was collected using ethylenediaminetetraacetic acid (EDTA) as the anti-coagulant. For PBMC preparation, samples of blood were diluted 1:1 with sterile phosphate buffered saline and then separated using ACCUSPIN™ System-Histopaque®-1077 tubes (Sigma-Aldrich, St Louis, Mo.), centrifuged at 400 g for 35 minutes. Buffy coat cells were removed into PBS, centrifuged at 200 g for 10 minutes and re-suspended in PBMC assay buffer (Hanks Balanced Salt Solution, 0.28% [w/v] 4-[2-hydroxyethyl]-1-piperazineethanesulfonic acid [HEPES], 0.01% [w/v] low-endotoxin bovine serum albumin [BSA]. A differential white cell count was performed and PBMC's diluted to 1×10^6 lymphocytes per ml in PBMC assay buffer.
(§3) Test compounds were dissolved in DMSO and diluted in PBMC assay buffer (final DMSO concentration 1%) to cover an appropriate concentration range, e.g 0.001 nM to 10000 nM. Samples of test compound solution or vehicle (20 μl) were added into 96-well tissue culture treated plates (Corning) and PBMC (160 μl) or WB (160 μl) added to each well. The assay mixtures were incubated at 37° C. for 1 h in a humidified incubator containing an atmosphere of air supplemented with 5% CO2 before adding LPS (20 μl of 100 ng/ml for PBMC or 1 μg/ml for WB). Plates were returned to the incubator for a further 18 hours, and then centrifuged before recovery of samples of supernatant. TNF-α in the samples was determined using an enzyme-linked immunosorbent assay (ELISA) (Invitrogen kit no CHC-1754; Invitrogen Carlsbad, Calif.) and following the manufacturers instructions. Dose response curves were constructed from which IC50 values were calculated.

[3] = system: TNF-α release from LPS stimulated human whole blood (WB); test: Inhibition of TNF-α release from LPS stimulated human whole blood; type: cell-based; details: 1 h preincubation, 18 hours after LPS, ELISA
Procedure: as §1, §2, §3

Compound | ED50 for inhibition of lung neutrophilia [1] [µg] | IC50 [2] [nM] | IC50 [3] [nM]
C[C@]12C=CC(=O)C=C1[C@@H](F)C[C@H]1[C@@H]3C[C@H]4O[C@@H](c5ccc(Cc6ccccc6)cc5)O[C@@]4(C(=O)CO)[C@@]3(C)C[C@H](O)[C@@]12F [Example 1, (4aS,4bR,5S,6aS,6bS,8R,9aR,10aS,10bS,12S)-8-(4-Benzylphenyl)-4b,12-difluoro-6b-glycoloyl-5-hydroxy-4a,6a-dimethyl-4a,4b,5,6,6a,6b,9a,10,10a,10b,11,12-dodecahydro-2H-naphtho[2′,1′:4,5]indeno[1,2-d][1,3]dioxol-2-one] | 0.27 | 0.098 | 17
C[C@]12C=CC(=O)C=C1[C@@H](F)C[C@H]1[C@@H]3C[C@H]4O[C@@H](c5ccc(CSc6ccc(O)c(Cl)c6)cc5)O[C@@]4(C(=O)CO)[C@@]3(C)C[C@H](O)[C@@]12F [Example 5, (4aS,4bR,5S,6aS,6bS,8R,9aR,10aS,10bS,12S)-8-(4-{[(3-chloro-4-hydroxyphenyl)thio]methyl}phenyl)-4-b,12-difluoro-6b-glycoloyl-5-hydroxy-4a,6a-dimethyl-4a,4b,5,6,6a,6b,9a,10,10a,10b. 11,12-dodecahydro-2H-naphtho[2′,1′:4.5]indeno[1,2-d][1,3]dioxol-2-one] | 3.6 | 0.032 | 8.73
CSc1cccc(Sc2ccc([C@@H]3O[C@@H]4C[C@H]5[C@@H]6C[C@H](F)C7=CC(=O)C=C[C@]7(C)[C@@]6(F)[C@@H](O)C[C@]5(C)[C@]4(C(=O)CO)O3)cc2)c1 [Example 2, (4aS,4bR,5S,6aS,6bS,8R,9aR,10aS,10bS,12S)-4b,12-difluoro-6b-glycoloyl-5-hydroxy-4a 0.6a-dimethyl-8-(4-{[3-(methylthio)phenyl]thio}phenyl)-4a,4b,5,6,6a,6b,9a,10,10a,10b,11.,12-dodecahydro-2H-naphtho[2′,1′:4,5]indeno[1,2-d][1,3]dioxol-2-one] | 0.18 | 0.092 | 49
C[C@]12C=CC(=O)C=C1[C@@H](F)C[C@H]1[C@@H]3C[C@H]4O[C@@H](c5ccc(CSc6ccc(O)cc6)cc5)O[C@@]4(C(=O)CO)[C@@]3(C)C[C@H](O)[C@@]12F [Example 3, (4aS,4bR,5S,6aS,6bS,8R,9aR,10aS,10bS,12S)-4b,12-Difluoro-6b-glycoloyl-5-hydroxy-8-(4-{[(4-hydroxyphenyl)thio]methyl}phenyl)-4a 0.6a-dimethyl-4a,4b,5,6,6a,6b,9a,10,10a,10b,11,12-dodecahydro-2H-naphtho[2′,1′:4,5]indeno[1,2-d][1,3]dioxol-2-one] | 0.45 | 0.061 | 24
C[S+]([O-])c1cccc(Sc2ccc([C@@H]3O[C@@H]4C[C@H]5[C@@H]6C[C@H](F)C7=CC(=O)C=C[C@]7(C)[C@@]6(F)[C@@H](O)C[C@]5(C)[C@]4(C(=O)CO)O3)cc2)c1 (stereo partly drawn) [Example 4, (4aS,4bR,5S,6aS,6bS,8R,9aR,10aS,10bS,12S)-4b,12-difluoro-6b-glycoloyl-5-hydroxy-4a,6a-dimethyl-8-(4-{[3-(methylsulfinyl)phenyl]thio}phenyl)-4a,4b,5,6,6a,6b,9a,10,10a,10b,11,12-dodecahydro-2H-naphtho[2′,1′:4.5]indeno[1,2-d][1,3]dioxol-2-one] | 2.00 | 0.059 | 40
